Earlier results on one compound are cited in patent US20150230971A1, “MULTIPURPOSE DRUG DELIVERY SYSTEMS FOR LONG-TERM IMPLANTATION OR INSERTION” (PAT&CO BVBA, priority 2012, published 2015).

The data set deals with rats and mice. As to conditions: carcinomas and/or precursor lesions of oral cavity, lips, tongue, esophagus, forestomach.

As to `C=COC(C)=O` [VAM, vinyl acetate monomer], the carcinogenicity result is on record as “increase in total malignant tumors”.
